In ChEMBL document CHEMBL1201862, “PubChem BioAssay data set” (2004):
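The compound was tested at five concentrations on cells cultured in 96-well plates, with a 48-hour exposure period. Here, GI50 denotes the concentration required for 50% inhibition of growth.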 Calls of active or inactive are those of the source. Cut-off read from the data, not from the text of the source: active = GI50 up to about 1.1 µM and inactive = higher.

Tests used:
Assay in all cases: inhibition of tumour cell growth, NCI panel, 48 h
A498 = system: A498
A549 = system: A549
CCRF-CEM = system: CCRF-CEM
COLO 205 = system: COLO 205
EKVX = system: EKVX
HT-29 = system: HT-29
Hs-578T = system: Hs-578T
IGROV-1 = system: IGROV-1
LOX IMVI = system: LOX IMVI
NCI-H460 = system: NCI-H460
OVCAR-8 = system: OVCAR-8
RXF 393 = system: RXF 393
SF-268 = system: SF-268
SK-MEL-28 = system: SK-MEL-28
SK-MEL-2 = system: SK-MEL-2
T47D = system: T47D
UACC-257 = system: UACC-257
UACC-62 = system: UACC-62
UO-31 = system: UO-31

Row | Structure (SMILES) | GI50 (A498) | GI50 (A549) | GI50 (CCRF-CEM) | GI50 (COLO 205) | GI50 (EKVX) | GI50 (HT-29) | GI50 (Hs-578T) | GI50 (IGROV-1) | GI50 (LOX IMVI) | GI50 (NCI-H460) | GI50 (OVCAR-8) | GI50 (RXF 393) | GI50 (SF-268) | GI50 (SK-MEL-28) | GI50 (SK-MEL-2) | GI50 (T47D) | GI50 (UACC-257) | GI50 (UACC-62) | GI50 (UO-31)
1 | CCC(=O)/C(=C\I)c1ccccc1 | 18.1 µM (inactive) | 20.9 µM (inactive) | 2.74 µM (inactive) | 2.05 µM (inactive) | 19.2 µM (inactive) | 0.931 µM (active) | 5.2 µM (inactive) | 1.97 µM (inactive) | 1.27 µM (inactive) | 9.86 µM (inactive) | 2 µM (inactive) | 1.52 µM (inactive) | 16.7 µM (inactive) | 2.7 µM (inactive) | 2.1 µM (inactive) | 1.68 µM (inactive) | 3.55 µM (inactive) | 2.49 µM (inactive) | 2.05 µM (inactive)
2 | CCOC(=O)CNC(=O)CNC(=O)CNC(=O)CNNc1c(OCc2ccccc2)c(=O)c1=O | > 100 µM (inactive) | > 100 µM (inactive) | > 100 µM (inactive) | > 100 µM (inactive) | > 100 µM (inactive) | > 100 µM (inactive) | > 100 µM (inactive) | > 100 µM (inactive) | – | – | > 100 µM (inactive) | > 100 µM (inactive) | > 100 µM (inactive) | > 100 µM (inactive) | > 100 µM (inactive) | > 100 µM (inactive) | > 100 µM (inactive) | > 100 µM (inactive) | > 100 µM (inactive)
3 | CCOC(=O)c1c(NS(=O)(=O)c2ccc(C)cc2)sc2c1CCCC2 | 36.1 µM (inactive) | 24.5 µM (inactive) | 12.1 µM (inactive) | 19 µM (inactive) | 32.6 µM (inactive) | 24.2 µM (inactive) | 26.9 µM (inactive) | 27.2 µM (inactive) | – | 24.3 µM (inactive) | 35.7 µM (inactive) | – | 26.1 µM (inactive) | – | 17.3 µM (inactive) | 43.3 µM (inactive) | 35 µM (inactive) | 17.5 µM (inactive) | 21.1 µM (inactive)
4 | N#CSCc1cccc(Nc2cc(=O)[nH]c(=O)[nH]2)c1 | > 100 µM (inactive) | > 100 µM (inactive) | – | 37.2 µM (inactive) | > 100 µM (inactive) | 37.2 µM (inactive) | 46.8 µM (inactive) | > 100 µM (inactive) | 92.3 µM (inactive) | > 100 µM (inactive) | 72.1 µM (inactive) | > 100 µM (inactive) | 28.8 µM (inactive) | 57.8 µM (inactive) | > 100 µM (inactive) | > 100 µM (inactive) | 85.1 µM (inactive) | 26.7 µM (inactive) | > 100 µM (inactive)
